One block for each compound: values may come before it. Activity calls are given as the source filed them.
How the values were obtained:
[1] = target: Cytochrome P450 2D6 (Homo sapiens, UniProt P10635);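 note: CYP2D6 member of a cytochrome P450 panel assay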
[2] = target: T1, Cytochrome P450 1A2 (Homo sapiens, UniProt P05177);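 note: PubChem cytochrome P450 panel assay, CYP1A2 panel member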
T1 sequence (P05177 whole entry): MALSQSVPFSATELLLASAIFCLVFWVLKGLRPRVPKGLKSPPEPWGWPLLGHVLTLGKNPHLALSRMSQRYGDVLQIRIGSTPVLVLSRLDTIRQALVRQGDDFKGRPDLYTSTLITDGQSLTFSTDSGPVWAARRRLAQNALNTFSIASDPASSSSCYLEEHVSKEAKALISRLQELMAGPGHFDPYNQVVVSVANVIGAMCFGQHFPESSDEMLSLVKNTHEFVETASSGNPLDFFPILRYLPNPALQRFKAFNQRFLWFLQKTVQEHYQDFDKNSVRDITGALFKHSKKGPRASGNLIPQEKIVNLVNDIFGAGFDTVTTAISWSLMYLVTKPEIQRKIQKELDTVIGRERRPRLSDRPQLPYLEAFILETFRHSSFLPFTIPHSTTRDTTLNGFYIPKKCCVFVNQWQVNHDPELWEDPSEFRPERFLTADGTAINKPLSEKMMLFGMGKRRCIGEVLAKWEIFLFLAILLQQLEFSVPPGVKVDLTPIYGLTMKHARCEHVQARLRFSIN

[3] = target: Cytochrome P450 2C9 (Homo sapiens, UniProt P11712)
[4] = target: Cytochrome P450 3A4 (Homo sapiens, UniProt P08684);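 note: CYP3A4 tested as one member of a cytochrome P450 panel screen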
[5] = target: T2, Zinc finger protein mex-5 (Caenorhabditis elegans, UniProt Q9XUB2); test: potency of MEX-5 RNA-binding blockers – biochemical, C. elegans, fluorescence polarization, dose response (AID 1960)
T2 sequence (Q9XUB2 whole entry): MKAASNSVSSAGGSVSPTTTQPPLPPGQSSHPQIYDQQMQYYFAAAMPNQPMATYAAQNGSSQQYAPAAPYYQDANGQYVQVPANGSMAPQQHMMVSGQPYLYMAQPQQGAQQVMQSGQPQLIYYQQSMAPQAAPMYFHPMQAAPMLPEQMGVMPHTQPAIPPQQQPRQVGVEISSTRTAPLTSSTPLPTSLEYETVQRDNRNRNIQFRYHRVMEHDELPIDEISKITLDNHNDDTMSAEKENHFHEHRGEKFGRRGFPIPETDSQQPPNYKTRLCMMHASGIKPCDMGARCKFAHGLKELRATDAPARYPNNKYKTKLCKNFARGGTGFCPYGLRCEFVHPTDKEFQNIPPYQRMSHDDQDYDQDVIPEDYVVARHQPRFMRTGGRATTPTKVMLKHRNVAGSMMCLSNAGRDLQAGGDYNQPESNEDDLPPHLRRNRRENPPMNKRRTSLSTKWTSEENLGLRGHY

[6] = target: T3, RNA-binding protein pos-1 (Caenorhabditis elegans, UniProt G5EF15); test: disruptors of C. elegans POS-1 RNA interaction – biochemical, fluorescence polarization, dose response (AID 1964);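 note: purified POS-1 fused to maltose binding protein made in E. coli; potency of compounds blocking POS-1 binding to fluorescent RNA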
T3 sequence (G5EF15 whole entry): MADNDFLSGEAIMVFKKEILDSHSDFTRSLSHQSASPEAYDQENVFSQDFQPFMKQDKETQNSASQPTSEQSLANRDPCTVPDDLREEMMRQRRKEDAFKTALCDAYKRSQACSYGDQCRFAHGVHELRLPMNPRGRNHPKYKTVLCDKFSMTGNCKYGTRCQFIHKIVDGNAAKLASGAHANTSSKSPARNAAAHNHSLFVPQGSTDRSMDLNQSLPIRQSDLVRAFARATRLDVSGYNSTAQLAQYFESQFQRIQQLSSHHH

[7] = loss of viability in HepG2 cells – cell-based, CellTiter-Glo, cherry-picked, cytotoxicity control for Shn3 inhibitor project, dose response (AID 624134); format: functional
[8] = non-specific 3'UTR reporter inhibition in Clone20-Shn3RL – cell-based, Renilla luciferase, cherry-picked, counter-screen for Shn3 inhibitor project, dose response (AID 624133); format: functional
[9] = reduction of Shn3 3'UTR-driven luciferase in osteoblasts – cell-based, Clone20 osteoblasts, firefly luciferase, cherry-picked, dose response (AID 624132); format: functional;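 note: firefly luciferase luminescence from reporter carrying the Shn3 3'UTR in osteoblasts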
[10] = target: Paired box protein Pax-8 (Homo sapiens, UniProt Q06710); test: PAX8 transcriptional activity inhibition in RMG-I – RMG-I cells, luciferase, cherry-pick, dose response (AID 687027); format: functional, cell-based;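 note: luciferase reporter driven by Pax8 target thyroperoxidase promoter measured by SteadyGlo luminescence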
[11] = system: P388/ADR; test: cells; format: functional; settings: Mus musculus
[12] = system: SN12K1; test: cells; format: functional; settings: Homo sapiens
[13] = system: P388; test: cells; format: functional; settings: Mus musculus
[14] = target: Cytochrome P450 2C19 (Homo sapiens, UniProt P33261); test: Cytochrome panel assay with activity outcomes. Panel member name: p450-cyp2c19 Compounds with AC50 equal or less than 10 uM are considered active; format: functional; settings: read-out: AC50
[15] = target: T4, Corticotropin-releasing factor receptor 2/Corticotropin-releasing factor-binding protein (Homo sapiens, UniProt P24387+Q13324); test: activators of CRF receptor 2 with binding protein – uHTS hits, confirmation (AID 602473); format: functional; settings: read-out: EC50_Mean
T4 sequence (Q13324 whole entry): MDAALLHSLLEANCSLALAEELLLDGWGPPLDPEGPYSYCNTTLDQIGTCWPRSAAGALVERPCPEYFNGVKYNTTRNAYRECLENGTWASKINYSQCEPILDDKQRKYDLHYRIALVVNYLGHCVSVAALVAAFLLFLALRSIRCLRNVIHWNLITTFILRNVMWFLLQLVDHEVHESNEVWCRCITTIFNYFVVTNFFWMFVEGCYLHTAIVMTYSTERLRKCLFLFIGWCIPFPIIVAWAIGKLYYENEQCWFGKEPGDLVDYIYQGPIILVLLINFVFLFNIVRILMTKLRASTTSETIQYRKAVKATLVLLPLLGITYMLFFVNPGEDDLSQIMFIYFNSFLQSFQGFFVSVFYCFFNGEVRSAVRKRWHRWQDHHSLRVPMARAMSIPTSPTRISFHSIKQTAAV
T4 sequence (P24387 whole entry): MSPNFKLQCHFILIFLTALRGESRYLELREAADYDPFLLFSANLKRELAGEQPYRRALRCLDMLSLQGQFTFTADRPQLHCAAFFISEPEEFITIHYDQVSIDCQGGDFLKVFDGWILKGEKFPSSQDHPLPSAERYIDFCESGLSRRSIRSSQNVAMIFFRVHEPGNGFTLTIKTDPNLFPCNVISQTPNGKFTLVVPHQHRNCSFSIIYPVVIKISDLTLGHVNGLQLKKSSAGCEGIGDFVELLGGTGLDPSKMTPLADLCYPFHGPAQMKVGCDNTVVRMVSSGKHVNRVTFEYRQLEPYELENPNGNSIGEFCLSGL

Chain of Cytochrome P450 2D6 (P10635 whole entry): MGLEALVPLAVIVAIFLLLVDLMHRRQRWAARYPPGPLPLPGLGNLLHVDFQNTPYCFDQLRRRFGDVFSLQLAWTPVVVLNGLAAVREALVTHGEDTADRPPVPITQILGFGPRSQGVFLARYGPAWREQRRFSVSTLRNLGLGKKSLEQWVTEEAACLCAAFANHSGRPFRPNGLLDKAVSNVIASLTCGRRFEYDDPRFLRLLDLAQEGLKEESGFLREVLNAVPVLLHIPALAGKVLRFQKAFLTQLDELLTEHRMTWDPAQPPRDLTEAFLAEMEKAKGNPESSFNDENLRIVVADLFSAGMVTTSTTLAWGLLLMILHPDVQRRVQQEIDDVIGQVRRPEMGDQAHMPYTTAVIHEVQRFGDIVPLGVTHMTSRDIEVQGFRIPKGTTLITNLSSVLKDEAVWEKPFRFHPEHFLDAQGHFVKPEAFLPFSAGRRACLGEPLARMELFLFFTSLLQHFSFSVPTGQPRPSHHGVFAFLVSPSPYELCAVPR
Chain of Cytochrome P450 2C19 (P33261 whole entry): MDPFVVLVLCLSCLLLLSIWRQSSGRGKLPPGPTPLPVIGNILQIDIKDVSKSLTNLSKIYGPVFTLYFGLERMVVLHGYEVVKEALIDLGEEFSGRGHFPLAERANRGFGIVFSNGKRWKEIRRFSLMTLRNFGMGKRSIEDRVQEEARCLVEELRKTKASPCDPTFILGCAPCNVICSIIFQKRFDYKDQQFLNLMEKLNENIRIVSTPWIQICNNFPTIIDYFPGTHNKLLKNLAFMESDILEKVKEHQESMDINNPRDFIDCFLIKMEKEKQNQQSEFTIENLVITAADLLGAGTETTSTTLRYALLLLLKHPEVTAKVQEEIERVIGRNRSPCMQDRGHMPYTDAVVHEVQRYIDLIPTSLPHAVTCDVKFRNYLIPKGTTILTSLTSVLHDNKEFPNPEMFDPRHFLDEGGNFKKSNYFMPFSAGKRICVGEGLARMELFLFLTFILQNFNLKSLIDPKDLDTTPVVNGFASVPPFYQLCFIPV
Chain of Cytochrome P450 2C9 (P11712 whole entry): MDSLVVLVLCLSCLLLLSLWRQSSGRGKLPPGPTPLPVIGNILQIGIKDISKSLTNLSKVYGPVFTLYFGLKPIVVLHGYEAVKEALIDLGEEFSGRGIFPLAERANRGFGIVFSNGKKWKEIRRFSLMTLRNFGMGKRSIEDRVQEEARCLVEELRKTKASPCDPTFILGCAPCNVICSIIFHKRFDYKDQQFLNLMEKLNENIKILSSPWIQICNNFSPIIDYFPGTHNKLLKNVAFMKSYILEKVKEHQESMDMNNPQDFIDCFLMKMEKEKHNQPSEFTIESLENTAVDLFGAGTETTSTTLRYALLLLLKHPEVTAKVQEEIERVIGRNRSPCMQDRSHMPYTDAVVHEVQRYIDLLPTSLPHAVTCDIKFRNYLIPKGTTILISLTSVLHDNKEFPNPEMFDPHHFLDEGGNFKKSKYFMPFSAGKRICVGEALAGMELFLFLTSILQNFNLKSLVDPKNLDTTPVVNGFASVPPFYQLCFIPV
Chain of Cytochrome P450 3A4 (P08684 whole entry): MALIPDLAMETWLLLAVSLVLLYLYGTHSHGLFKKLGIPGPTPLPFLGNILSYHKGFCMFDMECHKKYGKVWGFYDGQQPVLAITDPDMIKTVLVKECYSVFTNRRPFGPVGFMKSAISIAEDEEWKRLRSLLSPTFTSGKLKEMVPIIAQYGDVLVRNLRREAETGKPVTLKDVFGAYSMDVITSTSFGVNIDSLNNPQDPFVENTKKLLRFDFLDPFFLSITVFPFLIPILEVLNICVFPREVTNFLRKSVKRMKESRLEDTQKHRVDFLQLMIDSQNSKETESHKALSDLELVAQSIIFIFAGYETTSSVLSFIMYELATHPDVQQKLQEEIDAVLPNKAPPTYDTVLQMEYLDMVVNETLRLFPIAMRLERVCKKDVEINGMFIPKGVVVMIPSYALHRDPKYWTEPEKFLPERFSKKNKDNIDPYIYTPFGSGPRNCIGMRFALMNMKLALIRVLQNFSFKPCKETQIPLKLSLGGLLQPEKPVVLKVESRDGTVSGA
Chain of Paired box protein Pax-8 (Q06710 whole entry): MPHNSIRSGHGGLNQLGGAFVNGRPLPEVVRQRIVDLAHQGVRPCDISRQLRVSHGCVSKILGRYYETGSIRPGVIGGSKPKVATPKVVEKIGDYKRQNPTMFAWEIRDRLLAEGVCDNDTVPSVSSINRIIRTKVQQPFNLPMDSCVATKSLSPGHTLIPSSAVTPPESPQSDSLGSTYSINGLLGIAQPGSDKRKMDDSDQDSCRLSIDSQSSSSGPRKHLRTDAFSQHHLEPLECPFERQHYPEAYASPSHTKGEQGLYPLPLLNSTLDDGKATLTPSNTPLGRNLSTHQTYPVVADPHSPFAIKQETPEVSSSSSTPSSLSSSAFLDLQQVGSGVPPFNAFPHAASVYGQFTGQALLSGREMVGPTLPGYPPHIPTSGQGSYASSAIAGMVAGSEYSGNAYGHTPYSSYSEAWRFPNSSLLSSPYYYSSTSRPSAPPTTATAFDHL

Compound: COCC(=O)N1CCC[C@@]2(CCN(C(c3ccccc3)c3ccccc3)C2)C1
AC50 [2]: 12.6 µM (inconclusive) | AC50 [4]: 10 µM (inconclusive)

Compound: Cc1ccc(C(c2ccc(C)o2)c2cccc([N+](=O)[O-])c2O)o1
AC50 [1]: 14.1 µM (inconclusive) | AC50 [4]: 28.2 µM (inconclusive)

Compound: c1ccc(-c2cccc(N3CC4(CCNCC4)C3)c2)cc1
AC50 [2]: 12.6 µM (inconclusive)

Compound: CCN1CCN(Cc2ccc(NC(=O)c3cc(NC(=O)c4cncc(-c5cccs5)c4)cc(OC)c3)cc2C(F)(F)F)CC1
AC50 [7]: > 70 µM (inactive) | AC50 [8]: 27.3 µM (active) | AC50 [9]: 9.68 µM (active)

Compound: COC1=C(C)C(=O)C2=C(C1=O)C(CO)N1C(C#N)C3CC4C(C1C2N1CCOC41)N3C (stereo not given)
AC50 [10]: < 0.26 µM (active) | GI50 [11]: 0.01 µM (active) | GI50 [12]: 0.294 µM (active) | GI50 [13]: < 0.01 µM (active)

Compound: Nc1nc(SCCc2ccccc2)c2nc[nH]c2n1
AC50 [1]: 3.98 µM (inconclusive) | AC50 [3]: 3.98 µM (inconclusive)

Compound: Cc1cccc(-n2c(C)cc(/C=C3\C(=N)N4N=C(CC(C)C)SC4=NC3=O)c2C)c1
EC50 [15]: 24.2 µM (active)

Compound: Cc1ccc(CN2CCN(/N=C/C(Br)=C\c3ccccc3)CC2)cc1
EC50 [15]: > 53 µM (inactive)

Compound: CCOC(=O)CN(c1ccccn1)S(=O)(=O)c1ccccc1
AC50 [3]: 3.55 µM (inconclusive) | AC50 [14]: 31.6 µM (inconclusive)

Next, values leading:

AC50 [1]: 39.8 µM (inconclusive)
Compound: Cc1noc(C)c1-c1ccc2ncnc(NCc3ccccc3)c2c1

AC50 [2]: 15.8 µM (inconclusive) | AC50 [3]: 3.16 µM (inconclusive)
Compound: CC(C)CCN1C(=O)c2ccc(-c3nc4ccccc4c(=O)o3)cc2C1=O

EC50 [5]: > 300 µM (not active) | EC50 [6]: > 300 µM (not active)
Compound: O=C(OCC(=O)c1ccco1)c1ccc2ncsc2c1

EC50 [5]: > 150 µM (inconclusive) | EC50 [6]: 119 µM (inconclusive)
Compound: COc1ccc(CC(=O)NNC2=Nc3cccc4cccc2c34)cc1

AC50 [1]: 20 µM (inconclusive)
Compound: O=C(c1cc(-c2ccc(Cl)cc2Cl)on1)N1CCN(C(=O)c2ccco2)CC1

AC50 [1]: 25.1 µM (inconclusive)
Compound: COc1ncc2nc(CCc3ccccc3)c(=O)n(CCC#N)c2n1

AC50 [3]: 22.4 µM (inconclusive)
Compound: CCOC(=O)CSC1=C(C#N)C(C)C2=C(O)CCCC2=N1 (stereo not given)

AC50 [1]: 25.1 µM (inconclusive) | AC50 [14]: 31.6 µM (inconclusive)
Compound: CN(Cc1ccco1)c1cc(-c2cccc(NS(C)(=O)=O)c2)ncn1

AC50 [1]: 25.1 µM (inconclusive)
Compound: O=S(=O)(c1ccccc1)N1CCC2(CCN(Cc3nccs3)CC2)CC1

AC50 [2]: 3.16 µM (inconclusive) | AC50 [3]: 12.6 µM (inconclusive)
Compound: CCN1CCc2nc(NC(=O)c3ccc4c(c3)OCCO4)sc2C1

AC50 [3]: 15.8 µM (inconclusive) | AC50 [14]: 25.1 µM (inconclusive)
Compound: O=C(O)Cc1ccc2c(c1)N(S(=O)(=O)c1cccc(C(F)(F)F)c1)CC(C(=O)O)O2 (stereo not given)
